According to patent US12162902B2, “Decarboxylase inhibitors for treating Parkinson's disease” (SAIL BIOMEDICINES, priority 2018, dated 2024):
pIC50: −log10 of the molar value. Where two headings read alike, the source gives them in different places.

How the values were obtained:
[1] = molecular target: Tyrosine decarboxylase (tdc) (Enterococcus faecalis (strain EnGen0310 / MMH594), UniProt P0DTQ4); assay: Inhibition of tyrosine decarboxylase in vitro (dopamine formed from levodopa, LC-MS); type: biochemical; conditions: 60 min preincubation of tdc with inhibitor at room temperature, pH 5.5, 9 mM levodopa, 5 min reaction
Tyrosine decarboxylase (tdc), sequence (P0DTQ4 whole entry): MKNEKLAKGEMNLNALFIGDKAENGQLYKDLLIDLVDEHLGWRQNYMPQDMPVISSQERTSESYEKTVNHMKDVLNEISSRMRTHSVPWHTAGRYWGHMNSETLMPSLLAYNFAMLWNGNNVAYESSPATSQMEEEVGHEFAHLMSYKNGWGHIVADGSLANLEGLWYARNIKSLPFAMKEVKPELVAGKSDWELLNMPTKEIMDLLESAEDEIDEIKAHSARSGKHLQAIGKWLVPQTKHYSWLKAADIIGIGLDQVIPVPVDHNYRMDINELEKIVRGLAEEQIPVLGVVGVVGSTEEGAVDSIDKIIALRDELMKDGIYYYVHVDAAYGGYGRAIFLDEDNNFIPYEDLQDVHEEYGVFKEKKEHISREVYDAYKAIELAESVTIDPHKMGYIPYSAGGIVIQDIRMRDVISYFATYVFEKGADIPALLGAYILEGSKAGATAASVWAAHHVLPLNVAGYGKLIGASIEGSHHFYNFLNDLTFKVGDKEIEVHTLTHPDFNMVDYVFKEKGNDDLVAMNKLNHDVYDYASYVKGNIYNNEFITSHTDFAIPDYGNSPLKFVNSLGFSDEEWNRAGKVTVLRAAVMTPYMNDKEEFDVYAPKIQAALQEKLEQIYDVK
Experimental: Tyrosine decarboxylase (tdc) was obtained by following a previously published literature procedure (Science, 14 Jun. 2019: Vol. 364, Issue 6445, eaau6323). Tdc (220 nM final concentration) was thawed on ice and then mixed with pyridoxal-5-phosphate (2.2 mM final concentration) in 200 mM sodium acetate buffer, pH 5.5 optionally containing 1 mM TCEP. To this mixture was added inhibitor at a final concentration of 1000, 333, 111, 37, 12, 4.1, 1.4, or 0 μM (final volume: 100 μL; inhibitor was 100-fold concentrated in a solution of DMSO, H2O, or DMSO:H2O (1/1 v/v)). The protein-inhibitor mixture was incubated at room temperature for 60 min. 6 μL of this mixture was then withdrawn from each solution and mixed with 54 μL of 10 mM levodopa in 200 mM sodium acetate buffer pH 5.5. The final concentration of the reaction was 22 nM tdc, 220 μM pyridoxal-5-phosphate, 9 mM levodopa in 200 mM sodium acetate buffer pH 5.5 with 0-100 μM inhibitor. The reaction was proceeded for 5 min at room temperature before quenching by addition of 540 μL acetonitrile containing 0.1 (v/v) formic acid supplemented with 200 nM tolbutamide as an internal standard. The reactions were centrifuged (3,000 g, 10 min), and then 100 μL of each supernatant was transferred to a fresh plate. 100 μL of acetonitrile containing 0.1% (v/v) formic acid supplemented with 200 nM tolbutamide was added. An external standard curve containing 0-150 μM dopamine was prepared in the exact same manner.
Dopamine formed in each reaction was quantified by using an Agilent 6470 triple quadrupole mass spectrometer equipped with an Acquity UPLC. Mobile phase A consisted of H2O containing 10 mM ammonium formate, pH 3.0 and supplemented with 0.1% (v/v) formic acid. Mobile phase B consisted of acetonitrile containing 10 mM ammonium formate, pH 3.0 and supplemented with 0.1% (v/v) formic acid. 5 μL of each sample was injected onto a BEH Amide column (Waters Corporation, 2.1×50 mm, 1.7 μm). The gradient was set to: 100% mobile phase B at 0 min, decreasing linearly to 65% mobile phase B by 1.5 min, held constant at 65% mobile phase B until 2.5 min, ramped back up to 100% mobile phase B by 2.6 min, and held constant at 100% mobile phase B until 4.2 min. The flow rate was 0.6 mL/min. The dopamine was detected by using the mass spectrometer in multiple reaction monitoring (MRM) mode, quantifying the transition 154.1 to 137.0 m/z in positive mode. The fragmentor setting was 74, the collision energy was 9, and the cell accelerator voltage was 4, and the dwell time was 20. Tolbutamide was monitored using MRM and quantifying the transition of 271.1 to 91.0 m/z in positive mode. The fragmentor setting was 88, the collision energy was 37, and the cell accelerator voltage was 4, and the dwell time was 20.
The amount of dopamine was quantified by normalizing the area to the area of tolbutamide internal standard within each sample. This relative response was then compared to that of the standard curve to obtain the dopamine formed within each sample. The concentration of dopamine formed as a function of the inhibitor concentration at the preincubation stage was plotted in GraphPad Prism 8, and the IC50 was calculated using the non-linear fit for the standard IC50 curve equation “[inhibitor] vs response (three parameters).”

[2] = test system: Enterococcus faecalis v583; assay: Inhibition of E. faecalis decarboxylation activity in vitro (residual levodopa, LC-MS); type: cell-based
[3] = E. faecalis v583 culture in BHI broth pH 5 with 1.5 mM levodopa, 24 h at 37° C. anaerobic, read-out: IC50 @ 60 min
[4] = Enterococcus faecalis, V583, E. faecalis v583 culture in BHI broth pH 5 with 1.5 mM levodopa, 24 h at 37° C. anaerobic, read-out: IC50 @ 60 min

With `Cc1cc(CCN)ccc1O` [Compound P, 4-(2-aminoethyl)-2-methylphenol] the pIC50 ([1]; IC50 @ 60 min) was under 3.00 and the pIC50 ([2]; Enterococcus faecalis, V583, read-out: IC50 @ 60 min) was under 3.00.

`NC(CF)(Cc1ccc(O)cc1)C(=O)O` (single isomer, unassigned) [T] gave a pIC50 ([1]; read-out: IC50 @ 60 min) of 4.08 and a pIC50 [2, 3] of 4.73.

With `Cc1cc(CC(N)(CF)C(=O)O)ccc1O` (stereo not drawn) [Compound N, 2-amino-3-fluoro-2-(4-hydroxy-3-methylbenzyl)propanoic Acid] the pIC50 ([1]; read-out: IC50 @ 60 min) was 5.59.

`COC(=O)NC(CF)(Cc1ccc(O)cc1)C(=O)O` (stereo not drawn) [Compound W, 3-fluoro-2-(4-hydroxybenzyl)-2-((methoxycarbonyl)amino)-propanoic Acid] was tested, and the pIC50 ([1]; IC50 @ 60 min) was under 3.00 and the pIC50 [2, 4] was under 3.00.

With `NC(CF)(Cc1cccc(O)c1)C(=O)O` (stereo not drawn) [Compound R, 2-amino-3-fluoro-2-(3-hydroxybenzyl)propanoic Acid] the “IC50 @ 60 min” value [1] was “Minor inhibition” and the pIC50 [2, 4] was under 3.00.

Work on `CC(=O)NC(CF)(Cc1ccc(O)cc1)C(=O)O` (stereo not drawn) [Compound Y, 2-acetamido-3-fluoro-2-(4-hydroxybenzyl)propanoic acid] yielded a pIC50 ([1]; IC50 @ 60 min) of under 3.00 and a pIC50 [2, 4] of under 3.00.

Work on `CCC(N)(Cc1ccc(O)cc1)C(=O)O` (stereo not drawn) [O, 2-amino-2-(4-hydroxybenzyl)butanoic Acid] yielded a pIC50 ([1]; IC50 @ 60 min) of under 3.00 and a pIC50 [2, 4] of under 3.00.

`NC(CF)(Cc1ccc(O)cc1)C(=O)O` (single isomer, unassigned) [S] gave a pIC50 ([1]; read-out: IC50 @ 60 min) of 5.40 and a pIC50 [2, 3] of 5.70.

In the case of “2-amino-2-(fluoromethyl)-4-(4-hydroxyphenyl)butanoic acid [Compound U]”, the pIC50 ([1]; read-out: IC50 @ 60 min) was under 3.00.

With `NC(CF)(Cc1ccccc1)C(=O)O` (stereo not drawn) [Compound Z, 2-amino-2-benzyl-3-fluoropropanoic Acid] the pIC50 ([1]; IC50 @ 60 min) was under 3.00 and the pIC50 [2, 4] was under 3.00.

In the case of `NC(CF)(Cc1ccc(O)c(F)c1)C(=O)O` (stereo not drawn) [Compound M, 2-amino-3-fluoro-2-(3-fluoro-4-hydroxybenzyl)propanoic Acid], the pIC50 ([1]; read-out: IC50 @ 60 min) was 5.49.

In the case of `CC(=O)NC(C)(Cc1ccc(O)cc1)C(=O)O` (stereo not drawn) [Compound X, 2-acetamido-3-(4-hydroxyphenyl)-2-methylpropanoic Acid], the pIC50 ([1]; IC50 @ 60 min) was under 3.00 and the pIC50 [2, 4] was under 3.00.

`NC(Cc1ccc(O)cc1)(C(=O)O)C(F)F` (stereo not drawn) [Compound K, 2-amino-3,3-difluoro-2-(4-hydroxybenzyl)propanoic Acid] was tested, and the “IC50 @ 60 min” value [1] was “Minor inhibition”.

For `COC(=O)NC(C)(Cc1ccc(O)cc1)C(=O)O` (stereo not drawn) [Compound V, 3-(4-hydroxyphenyl)-2-((methoxycarbonyl)amino)-2-methylpropanoic Acid], the pIC50 ([1]; IC50 @ 60 min) was under 3.00 and the pIC50 [2, 4] was under 3.00.

`NC(CF)(Cc1ccc(O)c(Cl)c1)C(=O)O` (stereo not drawn) [Compound L, 2-amino-2-(3-chloro-4-hydroxybenzyl)-3-fluoropropanoic Acid] was tested, and the pIC50 ([1]; read-out: IC50 @ 60 min) was 5.60.

In the case of `CC(N)(Cc1ccc(O)c(O)c1)C(=O)O` (stereo not drawn) [Compound Q, 2-amino-3-(3,4-dihydroxyphenyl)-2-methylpropanoic Acid], the pIC50 ([1]; IC50 @ 60 min) was under 3.00 and the pIC50 [2, 4] was under 3.00.
